Holding throughout (conditions): concentration not given here
Experiment [1] deals with Alpha-amylase (Hordeum vulgare). Put plainly: Inhibition of malt alpha-amylase. Also noted: concentration or dose not given beside the values.
The subject of experiment [2] is Bacteria. Put plainly: Inhibition of Alpha-amylase. Also noted: concentration or dose not given beside the values.
Experiment [3] relates to Fungi. Put plainly: Inhibition of fungal alpha-amylase. Also on record: concentration or dose not given beside the values.
Experiment [4] deals with T1, Pancreatic alpha-amylase (Homo sapiens) (UniProt P04746).
T1 sequence (whole entry): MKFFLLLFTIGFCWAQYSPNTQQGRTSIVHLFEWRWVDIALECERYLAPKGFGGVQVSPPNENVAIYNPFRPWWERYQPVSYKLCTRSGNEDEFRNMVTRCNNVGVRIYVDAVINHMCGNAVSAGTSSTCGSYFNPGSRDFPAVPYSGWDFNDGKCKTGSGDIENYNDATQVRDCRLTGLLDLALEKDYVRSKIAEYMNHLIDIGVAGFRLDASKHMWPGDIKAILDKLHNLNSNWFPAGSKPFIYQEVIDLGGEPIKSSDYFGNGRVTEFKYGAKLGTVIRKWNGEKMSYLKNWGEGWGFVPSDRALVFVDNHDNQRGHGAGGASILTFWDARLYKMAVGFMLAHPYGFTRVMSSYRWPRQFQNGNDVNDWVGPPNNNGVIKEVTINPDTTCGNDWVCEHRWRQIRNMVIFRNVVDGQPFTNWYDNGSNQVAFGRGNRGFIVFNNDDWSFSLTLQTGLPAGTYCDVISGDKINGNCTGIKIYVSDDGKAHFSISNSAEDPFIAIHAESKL
Put plainly: Inhibition of pancreatic alpha-amylase. Also noted: concentration or dose not given beside the values.

Experiment [5] has as its target T2, Alpha-amylase 1A (Homo sapiens) (UniProt P0DUB6).
T2 sequence (whole entry): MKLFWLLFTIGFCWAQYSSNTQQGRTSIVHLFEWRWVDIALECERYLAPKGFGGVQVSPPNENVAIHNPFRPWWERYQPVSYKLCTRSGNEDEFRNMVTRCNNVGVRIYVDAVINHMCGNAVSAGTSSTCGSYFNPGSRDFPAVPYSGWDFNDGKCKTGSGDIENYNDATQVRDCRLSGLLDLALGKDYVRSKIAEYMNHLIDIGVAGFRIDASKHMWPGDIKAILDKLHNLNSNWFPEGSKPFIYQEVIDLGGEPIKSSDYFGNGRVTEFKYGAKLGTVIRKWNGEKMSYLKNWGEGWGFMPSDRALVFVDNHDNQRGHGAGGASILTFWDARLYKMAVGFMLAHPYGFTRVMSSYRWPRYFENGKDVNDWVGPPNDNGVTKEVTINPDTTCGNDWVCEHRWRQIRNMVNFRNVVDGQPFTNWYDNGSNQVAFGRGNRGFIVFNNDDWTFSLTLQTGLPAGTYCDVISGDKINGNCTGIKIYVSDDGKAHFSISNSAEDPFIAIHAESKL
Put plainly: Inhibition of salivary alpha-amylase.

The structures appear in SMILES notation.

As a reminder, the inhibition is the change of the read-out against control, counted positive when it falls. `COC1=C(OC)C(C(COC(C)=O)OC(C)=O)OC1=O` (centres undefined) came in with an inhibition in experiment [1] of 0%.
The same measure, in the same setting: the result for `COC1=C(OC)C(C(O)CO)OC1=O` (centres undefined) reads 4%.
As for `CC(=O)OCC(OC(C)=O)C1OC(O)=C(O)C1=O` (centres undefined), the inhibition in experiment [2] is 92%; in experiment [3] it was 91%; in experiment [4], 99%; in experiment [1], 89%.
On to `CCCCCCCCCCCCCCCC(=O)OC[C@H](O)[C@H]1OC(=O)C(O)=C1O`, for which the inhibition is 84% in experiment [2], 70% in experiment [3], 69% in experiment [5] and 88% in experiment [4].
In the case of `CCC(=O)OCC(O)C1OC(=O)C(OC)=C1OC` (centres undefined), the inhibition in experiment [1] came to 7%.
The same measure, in the same setting: under `CCCC(=O)OCC(O)C1OC(=O)C(OC)=C1OC` (centres undefined) stands 10%.
The same measure, in the same setting: the result for `COC1=C(OC(C)=O)C(C2COC(C)(C)O2)OC1=O` (centres undefined) reads 9%.
The same measure, in the same setting: under `COC1=C(O)C(=O)OC1C(O)CO` (centres undefined) stands 9%.
Regarding `CC1(C)OCC(C2OC(=O)C(O)=C2O)O1` (stereo in doubt; 2a), the inhibition in experiment [2] turned out to be 98%; in experiment [3] it was 94%; in experiment [5], 88%; in experiment [4] it was 99%; in experiment [1], 90%.
As to `O=C1O[C@H]([C@@H](O)CO)C(O)=C1O` (stereo in doubt; 1b), the inhibition came to 99% in experiment [2], 98% in experiment [3], 100% in experiment [5] and 100% in experiment [4].
For the compound `CC1(C)OCC(C2OC(=O)C(O)=C2O)O1` (stereo in doubt; 2b), the inhibition in experiment [2] turned out to be 93%; in experiment [3], 91%; in experiment [5], 98%; in experiment [4], 99%; in experiment [1], 93%.
For the compound `COC1=C(O)C(=O)OC1C1COC(C)(C)O1` (centres undefined), the inhibition in experiment [2] was 8%; in experiment [3], 17%; in experiment [4] it was 0%; in experiment [1], 29%.
Take `COC1=C(OC)C(C(O)COC(C)=O)OC1=O` (centres undefined): in experiment [1], the inhibition is 3%.
Still for that read-out and setting: under `COC1=C(OC)C(C2COC(C)(C)O2)OC1=O` (centres undefined) stands 2%.

The values above are taken from ChEMBL document CHEMBL1130867, “Ascorbic acid-based inhibitors of alpha-amylases” (Bioorg Med Chem Lett, 1998).
